Reference: patent publication US20090215036A1, “Genetic Alterations Useful For The Response Prediction of Malignant Neoplasia to Taxane-Based Medical Treatments” (Bayer HealthCare AG, priority 2004, published 2009)

Legend:
[1] = test system: breast cancer patients; experiment: Kaplan-Meier disease free survival of the two therapy arms (E-T-CMF vs. E-CMF) in respect to gene amplifications
Description: These samples were formalin-fixed and paraffin-embedded material from primary tumours. A detailed clinical report about all patients was available. The anonymized data included all medical, therapeutical, clinical, histo- and pathological, and follow-up information incl. relapse or survival time.
More than 60 genes were analyzed according to the method disclosed in examples 1 and 2 by quantitative PCR after nucleic acid extraction from formaldehyde-fixed, paraffin-embedded tissue slides. Alterations of the analyzed genes were determined by comparison with at least two reference genes. Reference genes included mainly MMP28 and HNRPDL, but also HBB, B2M, SOD2. […] The reference genes should be independent from the ARCHEON alterations occurring in the neoplastic lesions and should not be affected by chromosomal alterations such as amplifications and deletions. […] By measuring genes located on the X-chromosome (e.g. SRY), the Y-chromosome (e.g. Xist) and on chromosome 21, defined copy numbers of 1, 2 and 3 genes could be determined as internal control during each run for standardization. […] The calculated performance differences were used as a filter for the measurements within the target tissues, i.e. primer/probe differences of each individual gene as depicted in the control cells and tissues were subtracted from each individual gene measurement performed in the target tissue. […]

[2] = test system: breast cancer patients; experiment: Bivariate DNA and/or RNA marker combinations, +Taxol arm vs. -Taxol arm, quadrant analysis with Kaplan-Meier plots; details: GR3 + 4

CC(=O)O[C@H]1C(=O)[C@@]2(C)[C@H]([C@H](OC(=O)c3ccccc3)[C@]3(O)C[C@H](OC(=O)[C@H](O)[C@@H](NC(=O)c4ccccc4)c4ccccc4)C(C)=C1C3(C)C)[C@]1(OC(C)=O)CO[C@@H]1C[C@@H]2O [Taxol]
IN: Always beneficial: Benefit ([2]; CCNE2_R thr 13.4 / MST1_D thr 2.0, Quadrant LL) | Benefit ([2]; VEGFa_R thr 14.1 / AFP_R thr −1.0, Quadrant LH)
benefit from Taxol therapy: outcome of Taxol therapy in patients with gene amplification ([1]; FIGS. 2a-c, ErbB4 and VEGF amplified, alone or as a marker set of two genes)
no strong correlation: correlation of gene amplification to Taxol resistance ([1]; TRAG3 amplification)
OUT: Taxol beneficial: Benefit ([2]; AFP_R thr −2.2 / EMS1_R thr 18.9, Quadrant HL) | Benefit ([2]; AFP_R thr −2.2 / FLT1_D thr 3.3, Quadrant HL) | Benefit ([2]; AFP_R thr −2.2 / TRAG3_D thr 1.2, Quadrant HH) | Benefit ([2]; AFP_R thr −2.2 / TWIST1_D thr 1.1, Quadrant HH) | Benefit ([2]; AFP_R thr −2.5 / ISGF3G_D thr 3.7, Quadrant HL) | Benefit ([2]; ESR1_R thr 12.3 / CA9_R thr 1.4, Quadrant HH) | Benefit ([2]; STAU_R thr 17.6 / FLT1_R thr 3.5, Quadrant LL)
IN: Taxol beneficial: Benefit ([2]; CIDEB_R thr 13.7 / ERBB3_R thr 14.7, Quadrant LH) | Benefit ([2]; CIDEB_R thr 13.7 / RIN1_D thr 2.1, Quadrant LL) | Benefit ([2]; EMS1_R thr 15.9 / RIN1_D thr 2.1, Quadrant HL) | Benefit ([2]; EMS1_R thr 16.9 / ERBB3_R thr 14.7, Quadrant HH) | Benefit ([2]; ERBB3_R thr 14.7 / BRMS1_D thr 4.6, Quadrant HL) | Benefit ([2]; ERBB3_R thr 14.7 / MUC1_D thr 2.6, Quadrant HL) | Benefit ([2]; ERBB3_R thr 14.7 / VEGF_D thr 3.9, Quadrant HL) | Benefit ([2]; FolR2_D thr 2.9 / VEGF_D thr 2.6, Quadrant HL) | Benefit ([2]; MYC2_D thr 2.1 / ERBB3_R thr 14.4, Quadrant HH) | Benefit ([2]; MYC2_D thr 2.2 / CASP10_D thr 2.2, Quadrant HL) | Benefit ([2]; PGR_R thr 9.1 / RIN1_D thr 2.1, Quadrant HL) | Benefit ([2]; PGR_R thr 14.3 / ERBB3_R thr 14.7, Quadrant LH) | Benefit ([2]; PVT1_D thr 1.3 / RIN1_D thr 2.1, Quadrant HL) | Benefit ([2]; RIN1_D thr 2.1 / EMS1_D thr 1.2, Quadrant LH) | Benefit ([2]; RIN1_D thr 2.1 / VEGF_D thr 1.5, Quadrant LH) | Benefit ([2]; TONDO_R thr 12.2 / ErbB4_D thr 2.2, Quadrant LH)
OUT: Always beneficial: Benefit ([2]; ABCG2_R thr 11.0 / SIVA_D thr 1.3, Quadrant LH) | Benefit ([2]; BUB3_D thr 2.0 / MST1_D thr 2.1, Quadrant HH) | Benefit ([2]; FNTA_R thr 11.9 / ERBB2_D thr 1.8, Quadrant HH) | Benefit ([2]; GSTP1_D thr 2.2 / ING1L_D thr 1.6, Quadrant LH) | Benefit ([2]; GSTP1_D thr 2.4 / MST1_D thr 2.1, Quadrant LH) | Benefit ([2]; KISS I_D thr 1.3 / ERBB2_D thr 1.8, Quadrant HH) | Benefit ([2]; RAD54B_D thr 1.2 / ERBB2_D thr 1.8, Quadrant HH) | Benefit ([2]; VEGFa_R thr 13.0 / BOP1_D thr 2.0, Quadrant HH)
